From PMC7617869, “Molecular glues that inhibit deubiquitylase activity and inflammatory signaling” (Nature Structural & Molecular Biology, 2025)
“And” between values parts separate entries of the source, which are not always exact repeats. Equal entries are not always repeated.

Legend:
[1] = system: THP-1 cells; test: THP-1 live cell percentage; format: cell-based; details: THP-1, hIFNα2 25 ng/mL, 4 μM compound, 16 h
Protocol: (§1) THP-1 in vitro experiments
(§2) THP-1-DualTM cells (InvivoGen), derived from a human monocytic cell line, isolated from a patient with acute monocytic leukaemia, were cultured as per manufacturer’s guidance. Cells were seeded at 1x10^6 cells/mL in RPMI1640 media containing 10% fetal bovine serum (FBS), 1% penicillin-streptomycin (PS) (Gibco Laboratories) with DMSO (0.1%) (control) or in media containing JMS-175- […]
(§3) ng/mL) (Merck Life Science), ODN 2216 (1 µM) (Miltenyi Biotec), or Poly:IC (1 µg/mL) (InvivoGen).
(§4) Tofacitinib (Cambridge Biosciences) at 0.4 µM was used for comparison against a known JAK inhibitor.
(§5) Cells were centrifuged at 300 g for 5 minutes. Supernatant was removed and subjected to simultaneous study of the NF -κB pathway, by monitoring the activity of secreted alkaline phosphatase reporter (SEAP), and the IRF pathway, by assessing the activity o f a secreted Lucia luciferase using QUANTI - Blue ™ Solution and QUANTI -Luc™ 4 Lucia/Gaussia (InvivoGen), respectively, as per manufacturer’s instructions. Pelleted cells were used for FACS analysis using IFNα/β R1 APC-conjugated antibody or isotype control (Biotechne, FAB245A and IC002A), or unstained staining procedure with and without Zombie GreenTM (Biolegend). Samples were analysed using CytoFlex LX (Beckman) (50,000 live cells per condition). Median fluorescence intensity for APC channel gated on single cell live cells was analysed and compared as a percentage to control (no stimulation condition). […]

[2] = system: IFNAR1 surface levels in THP-1 cells; test: THP-1 IFNAR1 surface levels (FACS); format: cell-based, human; details: for IFNAR1 surface levels (Fig. 5h): IFN + compound, No IFN = 100; for IFNAR1 surface levels: THP-1, hIFNα2 25 ng/ml, 4 μM, 16 h
Protocol: as §1, §2, §3, §4, §5

[3] = system: ISG expression in MCF10A Cas9 cells expressing BRCC45 WT; test: MCF10A BRCC45 WT ISG expression (RT–qPCR); format: cell-based, human; parameters: scale not given here; details: BRCC45 KO+ BRCC45 WT; replicate values
Protocol: Supplementary Protocols 1. Experimental procedures for cell biology experiments. […]
Media supplements including human insulin solution (Santa Cruz Biotechnology, #sc-360248), cholera toxin from vibrio (Sigma Aldrich, #C8052-2MG), recombinant human EGF (PeproTech, #AF-100-15-100µg), hydrocortisone (Sigma-Aldrich, #H-0888) were used to grow MCF10A cells. The 4–12% Bis-Tris SDS-PAGE gels, cell culture media, horse serum and other materials for tissue culture were purchased from Invitrogen. LipoD293 (SigmaGen, #SL100668) was used for all the transfections to generate knock out cell lines.
Immortalised breast epithelial cell line MCF10A were cultured in 10 cm plates with Dulbecco’s Modified Eagle Medium (DMEM) + F-12 (1:1) supplemented with 5% horse serum, 100 ng/mL cholera toxin, 10 […]
Real-time quantitative PCR
1x10^5 MCF10A cells were cultured as described above and seeded into 6 well plates. Cells were left to reach ultra-confluence. Once confluent, cells were washed with PBS and starved for 30 minutes in 2 mL DMEM + F-12 (1:1) supplemented with 1% horse serum. After 30 minutes cells were pre-treated with either DMSO (0.1%) (Control and IFN only) or BRISC inhibitor (2.5 µM) for 15 minutes. After 15 minutes, hIFN2α (75 ng/mL) was added to the media and mixed. Cells were treated for 4 hours. Cells were washed with ice cold PBS and scraped with cell scrapers into 350 µL RNAlater buffer and RNA […]
#79254). Isolated RNA was quantified using a Nanodrop spectrophotometer. RNA was converted into cDNA and the complementary DNA was used for real-time quantitative PCR analysis of expression of interferon stimulated genes (ISG15, IFIT1, IFIT2, IFITM1, CXCL10 and RNA18S) using an Applied Biosystems Quantstudio 6 RT-PCR system. All experiments were carried out in triplicate.

[4] = system: CXCL10 secretion in healthy PBMCs; test: Healthy PBMC CXCL10 ELISA, IFNα2-stimulated; format: cell-based, human
Protocol: (§6) PBMCs in vitro experiments
(§7) Peripheral blood mononuclear cells (PBMCs) from healthy and SSc donors were separated using density gradient method (Leucosep™, Greiner Bio-One International) from EDTA anticoagulated peripheral blood; isolated cells were washed twice by PBS. PBMCs were then incubated in RPMI1640 […]
(§8) For healthy PBMCs, cells were stimulated with 20 ng/mL of IFN (+/- compounds or DMSO). For SSc PBMCs, cells were in basal conditions with no additional IFN stimulation. Cells were centrifuged at 300 g for 10 minutes. Supernatant was removed and subjected to R&D Systems DY266 Human CXCL10/IP-10 DuoSet ELISA (Biotechne) in duplicates, according to manufacturer’s guidance. Concentration of CXCL10 was determined according to a 4-parameter

[5] = system: CXCL10 secretion in SSc PBMCs; test: SSc PBMC CXCL10 ELISA, unstimulated; format: cell-based, human; details: for CXCL10 secretion: basal, nonstimulated SSc PBMCs, 16 h
Protocol: as §6, §7, §8

Compound | percentage of live cells [1] [%] | IFNAR1 surface levels (Fig. 5h) [2] | IFNAR1 surface levels [2] | ISG expression (Fig. 5b) [3] | ISG expression (Fig. 5c) [3] | ISG expression (Fig. 5e) [3] | ISG expression (Fig. 5f) [3] | ISG expression (Fig. 5d) [3] | CXCL10, healthy donor PBMCs (Fig. 6c) ([4]; Healthy donor HC1) | CXCL10, healthy donor PBMCs (Fig. 6c) ([4]; Healthy donor HC2) | CXCL10, healthy donor PBMCs (Fig. 6c) ([4]; Healthy donor HC3) | CXCL10, SSc donor PBMCs (Fig. 6d) ([5]; SSc donor ID 68) | CXCL10, SSc donor PBMCs (Fig. 6d) ([5]; SSc donor ID 78) | CXCL10, SSc donor PBMCs (Fig. 6d) ([5]; SSc donor ID 79) | CXCL10, SSc donor PBMCs (Fig. 6d) ([5]; SSc donor ID 142) | CXCL10, SSc donor PBMCs (Fig. 6d) ([5]; SSc donor ID 205) | CXCL10, SSc donor PBMCs (Fig. 6d) ([5]; SSc donor ID 219) | CXCL10, SSc donor PBMCs (Fig. 6d) ([5]; SSc donor ID 244) | CXCL10 secretion [5]
Cn1cc(NC(=O)c2c(Cl)cccc2Cl)c(C(=O)NC2CCN(C(=O)c3c(Cl)cccc3Cl)CC2)n1 [AP-5-145] | 98.52 | 65.8984 and 82.4668 and 66.4812 | no significant reduction | 0.8808 and 1 and 0.9871 and 1.027 and 0.974 | 0.8403 and 0.921 and 1.057 and 1.089 and 1.101 | 0.7343 and 0.7561 and 0.8094 and 1.106 and 1.138 | 0.7564 and 0.7183 and 0.7628 and 1.249 and 0.9766 | 1.013 and 1.064 and 1.1762 and 1.007 and 0.9192 | 89.7308 | 123.351 | 106.128 | 80 | 67.741 | 66.2158 | 86.6322 | 91.7468 | 90.6622 | 57.7808 | 
O=C(NC1C2CNCC21)c1nn(C(=O)c2c(Cl)cccc2Cl)cc1NC(=O)c1c(Cl)cccc1Cl (centres unmarked) [FX-171-C] | 97.99 | 56.2651 and 56.964 and 56.0526 | reduction in IFNAR1 surface levels | 0.4458 and 0.5019 and 0.5077 and 0.4274 and 0.4977 | 0.4481 and 0.428 and 0.4516 and 0.3326 and 0.4475 | 0.653 and 0.6751 and 0.6387 and 0.3593 and 0.4619 | 0.6515 and 0.6181 and 0.6111 and 0.3694 and 0.504 | 0.3965 and 0.3703 and 0.3895 and 0.4078 and 0.5134 | 77.343 | 68.1378 | 64.5563 | 72.6224 | 6.824 | 0 | 86.6599 | 108.154 | 48.1818 | 0 | reduced CXCL10 secretion
O=C(NC1CCNCC1)c1nn(C(=O)c2c(Cl)cccc2Cl)cc1NC(=O)c1c(Cl)cccc1Cl [JMS-175-2] | 98.05 | 48.4567 and 45.7565 and 33.0649 | reduction in IFNAR1 surface levels | 0.5319 and 0.5863 and 0.5604 and 0.6288 and 0.7746 | 0.5095 and 0.5499 and 0.6199 and 0.6187 and 0.6726 | 0.6564 and 0.7321 and 0.7949 and 0.5784 and 0.6638 | 0.7407 and 0.6852 and 0.6633 and 0.7235 and 0.5173 | 0.4933 and 0.4932 and 0.5473 and 0.4528 and 0.6627 | 63.2851 | 45.1027 | 43.5189 | 66.733 | 0 | 0 | 7.1246 | 83.3318 | 3.3086 | 0 | reduced CXCL10 secretion
